The source of these data is patent publication US11834451B2 (priority 2021, dated 2023).

A short description of data set [1]: in vitro. As to conditions: human.
Data set [2] has as its system EV-A71. The data set can be described thus: microbe, parasite or virus in culture. The conditions noted are these: Enterovirus A, EVA71, RD, read-out: EC50, Anti-EV-A71 Tainan/4643/1998 in RD cells. In kind it is cell-based, enterovirus A71 (EV-A71).
The test system of data set [3] is EV-D68. The data set can be described thus: microbe, parasite or virus in culture. In kind it is cell-based, enterovirus D68 (EV-D68). As to conditions: Enterovirus D, EVD68, RD, read-out: EC50, Anti-EV-D68 US/KY/14-18953 in RD cells.
For data set [4], the system named is CVB3 Nancy virus. Briefly: microbe, parasite or virus in culture. As to conditions: Enterovirus B, CVB3, Vero, read-out: EC50, Anti-CVB3 in Vero cells. The data set is classed as cell-based, coxsackievirus B3 (CVB3).
The subject of data set [5] is EV-D68, EV-A71, and CVB3. Briefly: organism not typed. The data set is classed as cell-based.
The mark [6] stands for this setting: CC50, in RD cells (Anti-EV-A71).

Take `COCCNC(=O)c1cc(C2CC2)nc2c1cnn2C(C)C` [Compound 7a, 6-cyclopropyl-N-(2-methoxyethyl)-1-(propan-2-yl)-1H-pyrazolo[3,4-b]pyridine-4-carboxamide]: the midpoint of cytotoxicity in data set [1] (setting [6]), the CC50, lay at 178000 nM.

As to `CC(C)n1ncc2c(C(=O)NCCN3CCCC3)cc(C3CC3)nc21` [Compound 7b, 6-cyclopropyl-1-(propan-2-yl)-N-[2-(pyrrolidin-1-yl)ethyl]-1H-pyrazolo[3,4-b]pyridine-4-carboxamide], the EC50 in data set [2] was 200 nM; in data set [3], 100 nM; in data set [4], 200 nM. Further, it took 46500 nM to reach half-maximal cytotoxicity in data set [1] (setting [6]) (CC50).

Consider `CCN(CC)CCNC(=O)c1cc(C2CC2)nc2c1cnn2C(C)C` [Compound 7c, 6-cyclopropyl-N-[2-(diethylamino)ethyl]-1-(propan-2-yl)-1H-pyrazolo[3,4-b]pyridine-4-carboxamide], for which the “EC50 values in words (summary across viruses)” value (from here on “EC50 values in words”) in data set [5] is recorded as “submicromolar”. Also, the EC50 was found to be 300 nM in data set [2], 400 nM in data set [3] and 500 nM in data set [4].

With `CC(C)n1ncc2c(C(=O)NC3CNC3)cc(C3CC3)nc21` [Compound 7e, N-(azetidin-3-yl)-6-cyclopropyl-1-(propan-2-yl)-1H-pyrazolo[3,4-b]pyridine-4-carboxamide], the EC50 in data set [3] amounted to 1400 nM.

In the case of `CC(C)n1ncc2c(C(=O)NC3CCN(C)C3)cc(C3CC3)nc21` (centres unmarked) [Compound 7g, 6-cyclopropyl-N-(1-methylpyrrolidin-3-yl)-1-(propan-2-yl)-1H-pyrazolo[3,4-b]pyridine-4-carboxamide], the EC50 stood at 100 nM in data set [5] (read-out: EC50 (text summary, virus not singled out)); 100 nM in data set [2]; 100 nM in data set [3]; 100 nM in data set [4]. Besides, the 50% cytotoxic concentration (CC50) (in general, the concentration that lowers cell viability or growth by half) in data set [1] (setting [6]) worked out at 20700 nM; in data set [1] (CC50, in RD cells (Anti-EV-D68)), 20700 nM.

With `CC(C)n1ncc2c(C(=O)NCCN)cc(C3CC3)nc21` [Compound 7i, N-(2-aminoethyl)-6-cyclopropyl-1-(propan-2-yl)-1H-pyrazolo[3,4-b]pyridine-4-carboxamide], the results for the EC50 in data set [2], in data set [3] and in data set [4] were 400 nM, 400 nM and 900 nM, respectively.

Consider `CC(CN)NC(=O)c1cc(C2CC2)nc2c1cnn2C(C)C` (centres unmarked) [Compound 7j, N-(1-aminopropan-2-yl)-6-cyclopropyl-1-(propan-2-yl)-1H-pyrazolo[3,4-b]pyridine-4-carboxamide], for which the EC50 in data set [2] turned out to be 600 nM; in data set [3] it was 300 nM; in data set [4], 300 nM.

For the compound `CCN(CC)CCCNC(=O)c1cc(C2CC2)nc2c1cnn2C(C)C` [Compound 7k, 6-cyclopropyl-N-[3-(diethylamino)propyl]-1-(propan-2-yl)-1H-pyrazolo[3,4-b]pyridine-4-carboxamide], the results for the EC50 in data set [2], in data set [3] and in data set [4] were 6100 nM, 1900 nM and 1700 nM, respectively.

Take `CNCCCNC(=O)c1cc(C2CC2)nc2c1cnn2C(C)C` [Compound 7m, 6-cyclopropyl-N-[3-(methylamino)propyl]-1-(propan-2-yl)-1H-pyrazolo[3,4-b]pyridine-4-carboxamide]: the EC50 worked out at 5300 nM in data set [2], 1700 nM in data set [3] and 1600 nM in data set [4]. In data set [1] (setting [6]), the CC50 stood at 183000 nM.

Take `CC(C)c1cc(C(=O)NCCN)c2cnn(C(C)C)c2n1` [Compound 10e, N-(2-aminoethyl)-1,6-bis(propan-2-yl)-1H-pyrazolo[3,4-b]pyridine-4-carboxamide]: the EC50 in data set [2] was 600 nM; in data set [3], 600 nM; in data set [4] it was 900 nM. This compound gave a 50% cytotoxic concentration (CC50) in data set [1] (setting [6]) of 170000 nM.

`CC(CN)NC(=O)c1cc(C(C)C)nc2c1cnn2C(C)C` (centres unmarked) [Compound 10f, N-(1-aminopropan-2-yl)-1,6-bis(propan-2-yl)-1H-pyrazolo[3,4-b]pyridine-4-carboxamide]: the values for the EC50 in data set [2], in data set [3] and in data set [4] were 500 nM, 400 nM and 600 nM, respectively. In addition, the 50% cytotoxic concentration (CC50) in data set [1] (setting [6]) stood at 118000 nM.

In the case of `CC(C)n1ncc2c(C(=O)NCCN(C)C)cc(C(C)(C)C)nc21` [Compound 11a, 6-tert-butyl-N-[2-(dimethylamino)ethyl]-1-(propan-2-yl)-1H-pyrazolo[3,4-b]pyridine-4-carboxamide], the EC50 in data set [2] came out at 40 nM; in data set [3], 100 nM; in data set [4], 100 nM. The midpoint of cytotoxicity in data set [1] (setting [6]), the CC50, lay at 31400 nM.

Take `CC(C)n1ncc2c(C(=O)NCCN)cc(C(C)(C)C)nc21` [Compound 11b, N-(2-aminoethyl)-6-tert-butyl-1-(propan-2-yl)-1H-pyrazolo[3,4-b]pyridine-4-carboxamide]: the EC50 in data set [2] turned out to be 200 nM; in data set [3], 100 nM; in data set [4] it was 100 nM. In data set [1] (setting [6]), this compound yielded a half-maximal cytotoxic concentration (CC50) of 24600 nM.

For the compound `Cc1cc(C(=O)NCCN(C)C)c2cnn(C3CCCC3)c2n1` [Compound 13, 1-cyclopentyl-N-[2-(dimethylamino)ethyl]-6-methyl-1H-pyrazolo[3,4-b]pyridine-4-carboxamide], the EC50 in data set [3] stood at 11100 nM.

As to `CCCn1ncc2c(C(=O)NCCN(C)C)cc(C)nc21` [Compound 14, N-[2-(dimethylamino)ethyl]-6-methyl-1-propyl-1H-pyrazolo[3,4-b]pyridine-4-carboxamide], the EC50 in data set [3] was 48400 nM.

On to `Cc1nn(C(C)(C)C)c2nc(C3CC3)cc(C(=O)NCCN(C)C)c12` [Compound 18a, 1-tert-butyl-6-cyclopropyl-N-[2-(dimethylamino)ethyl]-3-methyl-1H-pyrazolo[3,4-b]pyridine-4-carboxamide], for which the EC50 in data set [2] was determined as 3500 nM; in data set [3] it was 800 nM; in data set [4] it was 1800 nM. Moreover, in data set [1] (setting [6]), the cytotoxic concentration (CC50) is 45200 nM.

Regarding `CNCCNC(=O)c1cc(C2CC2)nc2c1c(C)nn2C(C)(C)C` [Compound 18b, 1-tert-butyl-6-cyclopropyl-3-methyl-N-[2-(methylamino)ethyl]-1H-pyrazolo[3,4-b]pyridine-4-carboxamide], the EC50 in data set [2] stood at 8400 nM; in data set [3] it was 1100 nM; in data set [4], 2900 nM.

As for `CCC(C)n1ncc2c(C(=O)NCCN(C)C)cc(C3CC3)nc21` (centres unmarked) [Compound 21, 1-(butan-2-yl)-6-cyclopropyl-N-[2-(dimethylamino)ethyl]-1H-pyrazolo[3,4-b]pyridine-4-carboxamide], the “EC50 values in words” value in data set [5] is reported as “low single-digit or submicromolar”. The EC50 in data set [2] was 100 nM; in data set [3] it was 200 nM; in data set [4] it was 100 nM.

On to `CC(C1CC1)n1ncc2c(C(=O)NCCN(C)C)cc(C3CC3)nc21` (centres unmarked) [Compound 22, 6-cyclopropyl-1-(1-cyclopropylethyl)-N-[2-(dimethylamino)ethyl]-1H-pyrazolo[3,4-b]pyridine-4-carboxamide], for which the “EC50 values in words” value in data set [5] is recorded as “low single-digit or submicromolar”. For the same compound, the EC50 in data set [2] is 200 nM; in data set [3] it was 700 nM; in data set [4], 1900 nM.
